22 molecules from US11130750B2, “Calcium channel inhibitors” (Cavion, Inc., priority 2017, dated 2021) can be followed below.

The test relates to Human Glioma cancer cell line U251. Briefly: Cell Proliferation Assay by CCK-8 Reagent. The format is cell-based. As to conditions: U251 cells, 72 hours incubation, CCK-8, % viability vs vehicle control. On the procedure: Human Glioma cancer cell line U251 was maintained in DMEM (Gibco, Cat #10569-10) supplemented with 10% fetal bovine serum inactivated at 56° C. (Gibco, Cat #10082-147), 100 U/mL penicillin, and 100 μg/mL streptomycin (Gibco, Cat #15140-122) at 37° C. and 1% MEM non-essential amino acid (Sigma, Cat #M7145) in a humid atmosphere containing 5% CO2. The cells were seeded at 2.5×10^3 cells/well in a 96 well plate (BD falcon, Cat #353072) with 200 pt volume/well and kept in 37° C./5% CO2 incubator for 0/N incubation. The seeding density was optimized previously based on growth curve. On the next day, plated cells were incubated with each test compounds at eight different concentrations (100, 50, 25, 12.5, 6.25, 3.125, 1.5 and 0.78) in triplicates. DMSO was used as a Vehicle control and Culture medium was used as blank control for the assay in each plate. The percentage of DMSO was kept uniform across the plate as <1%. The compound treated cells were incubated in 37° C./5% CO2 incubator for 72 hours. After incubation period, […] CCK-8 reagent (Dojindo, Cat #CK04) was added in all the wells and plate was kept in 37° C./5% CO2 incubator for 3 hours. After CCK-8 incubation, absorbance was measured @ 450 nm using Spectrophotometer (BMG, Omega Polar Star). % Viability values at each concentration were calculated with respect to Vehicle control and EC50 values were calculated using graph pad prism software and are shown in Table A.

A word on the EC50: it is the concentration needed to bring the measured effect to its halfway point. Molecule `CNC(=O)OC1(CCN(C)CCCc2nc3ccccc3[nH]2)COc2cc(F)ccc2[C@@H]1C(C)C` (single isomer, unassigned) [Example 20A] came in with a half-maximal effective concentration (EC50) of 54 µM.
On the same count and under the same terms, with `CNC(=O)OC1(CCN(C)CCCc2nc3ccccc3[nH]2)COc2cc(F)ccc2[C@@H]1C(C)C` (single isomer, unassigned) [Example 20B] the figure was 12 µM.
Consider `CNC(=O)O[C@]1(CCN(C)CCCc2nc3ccccc3[nH]2)CCc2cc(F)ccc2[C@@H]1C(C)C` [Example 1, (1S,2S)-2-(2-((3-(1H-Benzo[d]imidazol-2-yl)propyl)(methyl)amino)ethyl)-6-fluoro-1-isopropyl-1,2,3,4-tetrahydronaphthalen-2-yl methylcarbamate], for which the EC50 (Homo sapiens, U-251, 72 h) was determined as 6 µM.
In turn, `COC(=O)O[C@]1(CCN(C)CCCc2nc3ccccc3[nH]2)CCc2cc(F)ccc2[C@@H]1C(C)C` [Example 2, (1S,2S)-2-(2-((3-(1H-Benzo[d]imidazol-2-yl)propyl)(methyl)amino)ethyl)-6-fluoro-1-isopropyl-1,2,3,4-tetrahydronaphthalen-2-yl methylcarbonate] returned a half-maximal effective concentration (EC50) (Homo sapiens, U-251, 72 h) of 10 µM.
Same read-out and setting: under `CNC(=O)O[C@]1(CCN(C)CCCc2nc3c(C)ccc(C)c3[nH]2)CCc2cc(F)ccc2[C@@H]1C(C)C` [Example 3, (1S,2S)-2-(2-((3-(4,7-Dimethyl-1H-benzo[d]imidazol-2-yl)propyl)(methyl)amino)ethyl)-6-fluoro-1-isopropyl-1,2,3,4-tetrahydronaphthalen-2-yl methylcarbamate] stands 6 µM; under `Cc1ccc(C)c2[nH]c(CCCN(C)CC[C@@]3(OC(=O)NCCN(C)C)CCc4cc(F)ccc4[C@@H]3C(C)C)nc12` [Example 4, (1S,2S)-2-(2-((3-(4,7-Dimethyl-1H-benzo[d]imidazol-2-yl)propyl)(methyl)amino)ethyl)-6-fluoro-1-isopropyl-1,2,3,4-tetrahydronaphthalen-2-yl (2-(dimethylamino)ethyl)carbamate], 2.5 µM; under `CNC(=O)O[C@]1(CCN(C)CCCc2nc3c(OC)ccc(OC)c3[nH]2)CCc2cc(F)ccc2[C@@H]1C(C)C` [Example 5, (1S,2S)-2-(2-((3-(4,7-Dimethoxy-1H-benzo[d]imidazol-2-yl)propyl)(methyl)amino)ethyl)-6-fluoro-1-isopropyl-1,2,3,4-tetrahydronaphthalen-2-yl methylcarbamate], 10 µM.
Take `COCCNC(=O)O[C@]1(CCN(C)CCCc2nc3c(OC)ccc(OC)c3[nH]2)CCc2cc(F)ccc2[C@@H]1C(C)C` [Example 6, (1S,2S)-2-(2-((3-(4,7-Dimethoxy-1H-benzo[d]imidazol-2-yl)propyl)(methyl)amino)ethyl)-6-fluoro-1-isopropyl-1,2,3,4-tetrahydronaphthalen-2-yl (2-methoxyethyl)carbamate]: the midpoint of the response (Homo sapiens, U-251, 72 h), the EC50, lay at 15 µM.
Take `COc1ccc(Cl)c2[nH]c(CCCN(C)CC[C@@]3(OC(=O)N(C)C)CCc4cc(F)ccc4[C@@H]3C(C)C)nc12` [Example 7, (1S,2S)-2-(2-((3-(7-Chloro-4-methoxy-1H-benzo[d]imidazol-2-yl)propyl)(methyl)amino)ethyl)-6-fluoro-1-isopropyl-1,2,3,4-tetrahydronaphthalen-2-yl dimethylcarbamate]: the EC50 (Homo sapiens, U-251, 72 h) was 7.7 µM.
Molecule `CC(C)[C@H]1c2ccc(F)cc2CC[C@@]1(CCN(C)CCCc1nc2c(C(F)(F)F)cc(C(F)(F)F)cc2[nH]1)OC(=O)N1CCOCC1` [Example 8, (1S,2S)-2-(2-((3-(4,6-Bis(trifluoromethyl)-1H-benzo[d]imidazol-2-yl)propyl)(methyl)amino)ethyl)-6-fluoro-1-isopropyl-1,2,3,4-tetrahydronaphthalen-2-yl morpholine-4-carboxylate] gave a 50% effective concentration (EC50) (Homo sapiens, U-251, 72 h) of 6.8 µM.
For `CC(C)[C@H]1c2ccc(F)cc2CC[C@@]1(CCN(C)CCC(C)(C)c1nc2ccccc2[nH]1)OC(=O)N1CCOCC1` [Example 9, (1S,2S)-2-(2-((3-(1H-Benzo[d]imidazol-2-yl)-3-methylbutyl)(methyl)amino)ethyl)-6-fluoro-1-isopropyl-1,2,3,4-tetrahydronaphthalen-2-yl morpholine-4-carboxylate], a half-maximal effect (Homo sapiens, U-251, 72 h) (EC50) was put at 68 µM.
`CNC(=O)O[C@]1(CCN(C)CCC(C)(C)c2nc3ccccc3[nH]2)CCc2cc(F)ccc2[C@@H]1C(C)C` [Example 10, (1S,2S)-2-(2-((3-(1H-Benzo[d]imidazol-2-yl)-3-methylbutyl)(methyl)amino)ethyl)-6-fluoro-1-isopropyl-1,2,3,4-tetrahydronaphthalen-2-yl methylcarbamate] returned an EC50 (Homo sapiens, U-251, 72 h) of 9.5 µM.
In the case of `CC(C)[C@H]1c2ccc(F)cc2CC[C@@]1(CCN(C)CCC(C)(C)c1nc2ccccc2[nH]1)OC(=O)NCCN(C)C` [Example 11, (1S,2S)-2-(2-((3-(1H-Benzo[d]imidazol-2-yl)-3-methylbutyl)(methyl)amino)ethyl)-6-fluoro-1-isopropyl-1,2,3,4-tetrahydronaphthalen-2-yl (2-(dimethylamino)ethyl)carbamate], a half-maximal effect (Homo sapiens, U-251, 72 h) (EC50) was put at 2.5 µM.
Turning to `COCCNC(=O)O[C@]1(CCN(C)CCC(C)(C)c2nc3ccccc3[nH]2)CCc2cc(F)ccc2[C@@H]1C(C)C` [Example 12, (1S,2S)-2-(2-((3-(1H-Benzo[d]imidazol-2-yl)-3-methylbutyl)(methyl)amino)ethyl)-6-fluoro-1-isopropyl-1,2,3,4-tetrahydronaphthalen-2-yl (2-methoxyethyl)carbamate], the midpoint of the response (Homo sapiens, U-251, 72 h), the EC50, lay at 12 µM.
Take `CC(C)[C@H]1c2ccc(F)cc2CC[C@@]1(CCN(C)CCC(C)(C)c1nc2ccccc2[nH]1)OC(=O)NCCN1CCCC1` [Example 13, (1S,2S)-2-(2-((3-(1H-Benzo[d]imidazol-2-yl)-3-methylbutyl)(methyl)amino)ethyl)-6-fluoro-1-isopropyl-1,2,3,4-tetrahydronaphthalen-2-yl (2-(pyrrolidin-1-yl)ethyl)carbamate]: the EC50 (Homo sapiens, U-251, 72 h) stood at 4.6 µM.
Same read-out and setting: under `CCN(CC)CCNC(=O)O[C@]1(CCN(C)CCC(C)(C)c2nc3ccccc3[nH]2)CCc2cc(F)ccc2[C@@H]1C(C)C` [Example 14, (1S,2S)-2-(2-((3-(1H-Benzo[d]imidazol-2-yl)-3-methylbutyl)(methyl)amino)ethyl)-6-fluoro-1-isopropyl-1,2,3,4-tetrahydronaphthalen-2-yl (2-(diethylamino)ethyl)carbamate] stands 3.8 µM; under `Cc1ccc(C)c2[nH]c(CCCN(C)CC[C@@]3(OC(=O)N(C)C)CCc4cc(F)ccc4[C@@H]3C(C)C)nc12` [Example 16, (1S,2S)-2-(2-((3-(4,7-dimethyl-1H-benzo[d]imidazol-2-yl)propyl)(methyl)amino)ethyl)-6-fluoro-1-isopropyl-1,2,3,4-tetrahydronaphthalen-2-yl dimethylcarbamate], 6 µM; under `Cc1ccc(C)c2[nH]c(CCCN(C)CC[C@]3(OC(=O)N4CCOCC4)CCc4cc(F)ccc4[C@H]3C(C)C)nc12` [Example 17, (1R,2R)-2-(2-((3-(4,7-Dimethyl-1H-benzo[d]imidazol-2-yl)propyl)(methyl)amino)ethyl)-6-fluoro-1-isopropyl-1,2,3,4-tetrahydronaphthalen-2-yl morpholine-4-carboxylate], 4.3 µM.
On to `CC(C)[C@H]1c2ccc(F)cc2CC[C@@]1(CCN(C)CCC1(c2nc3ccccc3[nH]2)CC1)OC(=O)N1CCOCC1` [Example 19, (1S,2S)-2-(2-((2-(1-(1H-Benzo[d]imidazol-2-yl)cyclopropyl)ethyl)(methyl)amino)ethyl)-6-fluoro-1-isopropyl-1,2,3,4-tetrahydronaphthalen-2-yl morpholine-4-carboxylate], for which it took 23 µM to reach a half-maximal effect (Homo sapiens, U-251, 72 h) (EC50).
In the case of `CNC(=O)OC1(CCN(C)CCCc2nc3c(C)ccc(C)c3[nH]2)COc2cc(F)ccc2[C@@H]1C(C)C` (stereo partly drawn) [Example 21A, (4S)-3-(2-((3-(4,7-Dimethyl-1H-benzo[d]imidazol-2-yl)propyl)(methyl)amino)ethyl)-7-fluoro-4-isopropylchroman-3-yl methylcarbamate], a half-maximal response (Homo sapiens, U-251, 72 h) (EC50) required 7 µM.
As to `CNC(=O)OC1(CCN(C)CCCc2nc3c(C)ccc(C)c3[nH]2)COc2cc(F)ccc2[C@@H]1C(C)C` (stereo partly drawn) [Example 21B, (4S)-3-(2-((3-(4,7-Dimethyl-1H-benzo[d]imidazol-2-yl)propyl)(methyl)amino)ethyl)-7-fluoro-4-isopropylchroman-3-yl methylcarbamate], a half-maximal response (EC50) required 9 µM.
`COCC(=O)O[C@]1(CCN(C)CCCc2nc3ccccc3[nH]2)CCc2cc(F)ccc2[C@@H]1C(C)C` [Mibefradil, mibefradil, reference compound] showed an EC50 (Homo sapiens, U-251, 72 h) of 12 µM.
